Experimental data from ChEMBL document CHEMBL5375986, “Discovery of Lead 2-Thiazolylhydrazones with Broad-Spectrum and Potent Antifungal Activity” (J Med Chem, 2023).
In brackets after ≈: the same amount, converted by molar mass.

Columns and labels:
Cryptococcus neoformans [1] = experiment: Antifungal activity against Cryptococcus neoformans ATCC 24067 assessed as inhibition of fungal growth incubated for 24 to 48 hrs by CLSI based broth microdilution method; assay type: functional; conditions: time 24-48 hrs
[2] = Antifungal activity against Cryptococcus gattii ATCC 24065 assessed as inhibition of fungal growth incubated for 24 to 48 hrs by CLSI protocol based broth microdilution method; assay type: functional, Cryptococcus gattii VGI; conditions: time 24-48 hrs
Candida albicans [3] = experiment: Antifungal activity against Candida albicans SC5314 assessed as inhibition of fungal growth incubated for 24 to 48 hrs by CLSI protocol based broth microdilution method; assay type: functional; conditions: time 24-48 hrs
Nakaseomyces glabratus = experiment: Antifungal activity against Candida glabrata ATCC 2001 assessed as inhibition of fungal growth incubated for 24 to 48 hrs by CLSI protocol based broth microdilution method; assay type: functional; conditions: time 24-48 hrs
Pichia kudriavzevii = experiment: Antifungal activity against Candida krusei ATCC 20298 assessed as inhibition of fungal growth incubated for 24 to 48 hrs by CLSI protocol based broth microdilution method; assay type: functional; conditions: time 24-48 hrs
Candida parapsilosis = experiment: Antifungal activity against Candida parapsilosis ATCC 22019 assessed as inhibition of fungal growth incubated for 24 to 48 hrs by CLSI protocol based broth microdilution method; assay type: functional; conditions: Lodderomyces parapsilosis, time 24-48 hrs
Candida tropicalis = experiment: Antifungal activity against Candida tropicalis ATCC 750 assessed as inhibition of fungal growth incubated for 24 to 48 hrs by CLSI protocol based broth microdilution method; assay type: functional; conditions: time 24-48 hrs
[Candida] auris = Antifungal activity against Candida auris COLO 01 assessed as inhibition of fungal growth incubated for 24 to 48 hrs by CLSI protocol based broth microdilution method; assay type: functional; conditions: Candidozyma auris, time 24-48 hrs
Cryptococcus neoformans [4] = experiment: Antifungal activity against Cryptococcus neoformans assessed as inhibition of fungal growth; assay type: functional
[5] = Antifungal activity against Cryptococcus gattii VGI assessed as inhibition of fungal growth; assay type: functional
Candida albicans [6] = experiment: Antifungal activity against Candida albicans assessed as inhibition of fungal growth; assay type: functional
[7] = Cytotoxicity against human PBMC cells assessed as inhibition of cell growth incubated for 24 to 48 hrs by MTT assay; assay type: toxicity, cell-based

Compound | MIC (Cryptococcus neoformans [1]) | MIC [2] | MIC (Candida albicans [3]) | MIC (Nakaseomyces glabratus) | MIC (Pichia kudriavzevii) | MIC (Candida parapsilosis) | MIC (Candida tropicalis) | MIC ([Candida] auris) | MIC (Cryptococcus neoformans [4]) | MIC [5] | MIC (Candida albicans [6]) | IC50 [7]
C/C(CCC(=O)O)=N\Nc1nc(-c2ccc(C#N)cc2)cs1 | 1.5 µM (≈ 0.472 µg/mL) | 1.5 µM (≈ 0.472 µg/mL) | 3.1 µM (≈ 0.975 µg/mL) | 49.7 µM (≈ 15.6 µg/mL) | 1.5 µM (≈ 0.472 µg/mL) | 6.2 µM (≈ 1.95 µg/mL) | 24.8 µM (≈ 7.8 µg/mL) | 0.8 µM (≈ 0.251 µg/mL) |  |  |  | 
CCOC(=O)C(C)=NNc1nc(-c2ccc(F)cc2)cs1 | > 125 µM | > 125 µM | > 125 µM | > 125 µM | 102 µM (≈ 31.3 µg/mL) | > 125 µM | > 125 µM | 50.8 µM (≈ 15.6 µg/mL) |  |  |  | 
C/C(CCC(=O)O)=N\Nc1nc(-c2ccc(F)cc2)cs1 | 3.2 µM (≈ 0.984 µg/mL) | 3.2 µM (≈ 0.984 µg/mL) | 3.2 µM (≈ 0.984 µg/mL) | 50.8 µM (≈ 15.6 µg/mL) | 1.6 µM (≈ 0.492 µg/mL) | 1.6 µM (≈ 0.492 µg/mL) | 6.3 µM (≈ 1.94 µg/mL) | 0.8 µM (≈ 0.246 µg/mL) |  |  |  | 
CCOC(=O)c1sc(N/N=C\C2CCCCC2)nc1C | > 125 µM | > 125 µM | > 125 µM | > 125 µM | > 125 µM | > 125 µM | > 125 µM | > 125 µM |  |  |  | 
C/C(CCC(=O)O)=N\Nc1nc(-c2ccccc2)cs1 | 6.7 µM (≈ 1.94 µg/mL) | 6.7 µM (≈ 1.94 µg/mL) | 3.4 µM (≈ 0.984 µg/mL) | 1.7 µM (≈ 0.492 µg/mL) | 13.5 µM (≈ 3.91 µg/mL) | 13.5 µM (≈ 3.91 µg/mL) | 3.4 µM (≈ 0.984 µg/mL) | 3.4 µM (≈ 0.984 µg/mL) |  |  |  | 
CCN1CCCC(/C=N/Nc2nc(-c3ccc(Br)cc3)cs2)C1 (stereo not drawn) | 72.9 µM (≈ 28.7 µg/mL) | 72.9 µM (≈ 28.7 µg/mL) | 39.8 µM (≈ 15.7 µg/mL) | > 125 µM | 2.5 µM (≈ 0.983 µg/mL) | 19.9 µM (≈ 7.83 µg/mL) | 79.7 µM (≈ 31.4 µg/mL) | 19.9 µM (≈ 7.83 µg/mL) |  |  |  | 
CCOC(=O)Cc1csc(NN=C(C)CCO)n1 | > 125 µM | > 125 µM | 115 µM (≈ 31.3 µg/mL) | 7.2 µM (≈ 1.95 µg/mL) | 3.6 µM (≈ 0.977 µg/mL) | 115 µM (≈ 31.3 µg/mL) | 57.6 µM (≈ 15.6 µg/mL) | 115 µM (≈ 31.3 µg/mL) |  |  |  | 
COc1ccc(-c2csc(NN=C(C)CCO)n2)cc1 |  |  |  |  |  |  |  |  | 0.45 µM (≈ 0.131 µg/mL) | 0.9 µM (≈ 0.262 µg/mL) |  | 
CCOC(=O)/C(C)=N\Nc1nc(C)c(C(=O)OCC)s1 | > 125 µM | > 125 µM | > 125 µM | > 125 µM | > 125 µM | > 125 µM | 104 µM (≈ 31.3 µg/mL) | > 125 µM |  |  |  | 
CCOC(=O)/C(C)=N/Nc1nc(-c2ccc(C#N)cc2)cs1 | 49.7 µM (≈ 15.6 µg/mL) | 24.8 µM (≈ 7.8 µg/mL) | 49.7 µM (≈ 15.6 µg/mL) |  | 99.4 µM (≈ 31.2 µg/mL) | 24.8 µM (≈ 7.8 µg/mL) | > 125 µM | 24.8 µM (≈ 7.8 µg/mL) |  |  |  | 
CCOC(=O)Cc1csc(N/N=C\C2CCCCC2)n1 | 106 µM (≈ 31.3 µg/mL) | 106 µM (≈ 31.3 µg/mL) | 52.9 µM (≈ 15.6 µg/mL) | > 125 µM | 0.8 µM (≈ 0.236 µg/mL) | 52.9 µM (≈ 15.6 µg/mL) | 6.6 µM (≈ 1.95 µg/mL) | 52.9 µM (≈ 15.6 µg/mL) |  |  |  | 
C/C(CCC(=O)O)=N\Nc1nc(-c2ccc(C)cc2)cs1 | 0.7 µM (≈ 0.212 µg/mL) | 0.3 µM (≈ 0.091 µg/mL) | 6.4 µM (≈ 1.94 µg/mL) |  | 6.4 µM (≈ 1.94 µg/mL) |  | 51.4 µM (≈ 15.6 µg/mL) | 3.2 µM (≈ 0.971 µg/mL) |  |  |  | 
CCOC(=O)/C(C)=N/Nc1nc(-c2ccc(Br)cc2)cs1 | 84.9 µM (≈ 31.3 µg/mL) | 84.9 µM (≈ 31.3 µg/mL) | 84.9 µM (≈ 31.3 µg/mL) | 21.2 µM (≈ 7.81 µg/mL) | 10.6 µM (≈ 3.9 µg/mL) | 84.9 µM (≈ 31.3 µg/mL) | 21.2 µM (≈ 7.81 µg/mL) | 21.2 µM (≈ 7.81 µg/mL) |  |  |  | 
CC(CCO)=NNc1nc(-c2ccc(C#N)cc2)cs1 |  |  |  |  |  |  |  |  | 0.12 µM (≈ 0.0344 µg/mL) | 0.12 µM (≈ 0.0344 µg/mL) | 1.95 µM (≈ 0.558 µg/mL) | 
C[C@@H]1[C@H](O)[C@@H](C)/C=C/C=C/C=C/C=C/C=C/C=C/C=C/[C@H](O[C@@H]2O[C@H](C)[C@@H](O)[C@H](N)[C@@H]2O)C[C@@H]2O[C@](O)(C[C@@H](O)C[C@@H](O)[C@H](O)CC[C@@H](O)C[C@@H](O)CC(=O)O[C@H]1C)C[C@H](O)[C@H]2C(=O)O [AMPHOTERICIN B] | 0.5 µM (≈ 0.462 µg/mL) | 1.1 µM (≈ 1.02 µg/mL) | 2.2 µM (≈ 2.03 µg/mL) | 1.1 µM (≈ 1.02 µg/mL) | 4.3 µM (≈ 3.97 µg/mL) | 2.2 µM (≈ 2.03 µg/mL) | 0.5 µM (≈ 0.462 µg/mL) | 4.3 µM (≈ 3.97 µg/mL) |  |  |  | 
CC[C@H](C)C[C@H](C)CCCCCCCCC(=O)N[C@H]1C[C@@H](O)[C@@H](NCCN)NC(=O)[C@@H]2[C@@H](O)CCN2C(=O)[C@H]([C@H](O)CCN)NC(=O)[C@H]([C@H](O)[C@@H](O)c2ccc(O)cc2)NC(=O)[C@@H]2C[C@@H](O)CN2C(=O)[C@H]([C@@H](C)O)NC1=O [CASPOFUNGIN] |  |  |  |  |  |  |  | 0.1 µM (≈ 0.109 µg/mL) |  |  |  | 
Nc1ccn([C@@H]2O[C@H](CO)[C@@H](O)[C@@H]2O)c(=O)n1 [CYTARABINE] |  |  |  |  |  |  |  |  |  |  |  | 181 µM
OC(Cn1cncn1)(Cn1cncn1)c1ccc(F)cc1F [FLUCONAZOLE] |  | 52.2 µM (≈ 16 µg/mL) | 1.6 µM (≈ 0.49 µg/mL) | 13.1 µM (≈ 4.01 µg/mL) | 104 µM (≈ 32 µg/mL) | 3.3 µM (≈ 1.01 µg/mL) | 0.8 µM (≈ 0.245 µg/mL) |  |  |  |  | 
Cc1ccc(NC(=O)c2ccc(CN3CCN(C)CC3)cc2)cc1Nc1nccc(-c2cccnc2)n1 [IMATINIB] |  |  |  |  |  |  |  |  |  |  |  | 159 µM
CCC(C)n1ncn(-c2ccc(N3CCN(c4ccc(OCC5COC(Cn6cncn6)(c6ccc(Cl)cc6Cl)O5)cc4)CC3)cc2)c1=O (stereo not drawn) [ITRACONAZOLE] | 1.4 µM (≈ 0.988 µg/mL) | 2.8 µM (≈ 1.98 µg/mL) | 0.7 µM (≈ 0.494 µg/mL) | 0.4 µM (≈ 0.282 µg/mL) | 2.8 µM (≈ 1.98 µg/mL) | 0.4 µM (≈ 0.282 µg/mL) | 0.2 µM (≈ 0.141 µg/mL) | 0.4 µM (≈ 0.282 µg/mL) |  |  |  | 
